Reference: patent US20070092577A1, “Dietary calcium for reducing the production of reactive oxygen species” (University of Tennessee Research Foundation, priority 2005, published 2007)

How the values were obtained:
cyclin A = experiment: Cyclin A expression in 3T3-L1 adipocytes; assay type: cell-based, murine; settings: added to glucose 30 mmol/L, 48 hours; nifedipine 10 μmol/L
Method: 3T3-L1 preadipocytes were incubated at a density of 8000 cells/cm^2 (10 cm^2 dish) and grown in Dulbecco's modified Eagle's medium (DMEM) containing 10% FBS and antibiotics (adipocyte medium) at 37° C. in 5% CO2 in air. Confluent preadipocytes were induced to differentiate with a standard differentiation medium consisting of DMEM-F 10 (1:1, vol/vol) medium supplemented with 1% FBS, 1 μM dexamethasone, IBMX (0.5 mM) and antibiotics (1% Penicillin-Streptomycin). Preadipocytes were maintained in this differentiation medium for 3 days and subsequently cultured in adipocyte medium. Cultures were re-fed every 2-3 days to allow 90% of cells to reach full differentiation before conducting chemical treatment. Chemicals were freshly diluted in adipocyte medium before treatment. […] Cell viability was measured via trypan blue exclusion. Adipocyte 18s, cyclin A, NADPH oxidase, and UCP2 were quantitatively measured using a Smart Cycler Real Time PCR System (Cepheid, Sunnyvale, Calif.) with a TaqMan 1000 Core Reagent Kit (Applied Biosystems, Branchburg, N.J.). […] Reactions of quantitative RT-PCR for standards and unknown samples were also performed according to the instructions of Smart Cycler System (Cepheid, Sunnyvale, Calif.) and TaqMan Real Time PCR Core Kit (Applied Biosystems, Branchburg, N.J.). The mRNA quantitation for each sample was further normalized using the corresponding 18s quantitation.

TNFα = TNFα expression in differentiated 3T3-L1 adipocytes; assay type: cell-based, mouse; settings: 10 nmol/L, 48 h
Method: 3T3-L1 pre-adipocytes were incubated at a density of 8000 cells/cm^2 (10 cm^2 dish) and grown in Dulbecco's modified Eagle's medium (DMEM) containing 10% FBS and antibiotics (adipocyte medium) at 37° C. in 5% CO2 in air. Confluent pre-adipocytes were induced to differentiate with a standard differentiation medium consisting of DMEM-F10 (1:1, vol/vol) medium supplemented with 1% fetal bovine serum (FBS), 1 μM dexamethasone, isobutylmethylxanthine (IBMX) (0.5 mM) and antibiotics (1% Penicillin-Streptomycin). Pre-adipocytes were maintained in this differentiation medium for 3 days and subsequently cultured in adipocyte medium. Cultures were re-fed every 2-3 days to allow 90% cells to reach fully differentiation before conducting chemical treatment. […] Cell viability was measured via trypan blue exclusion. Adipocyte and muscle 18s, TNFα, IL-6, IL-8, IL-15 and adiponectin were quantitatively measured using a smart cycler real-time PCR system (Cepheid, Sunnyvale, Calif.) with a TaqMan 1000 Core Reagent Kit (Applied Biosystems, Branchburg, N.J.). […] Reactions of quantitative RT-PCR for standards and unknown samples were also performed according to the instructions of Smart Cycler System (Cepheid, Sunnyvale, Calif.) and TaqMan Real Time PCR Core Kit (Applied Biosystems, Branchburg, N.J.). The mRNA quantitation for each sample was further normalized using the corresponding 18s quantitation.

IL-15 = IL-15 expression in differentiated Zen-bio human adipocytes; assay type: cell-based; settings: 10 nmol/L 1α, 25-(OH)2-D3 or 10 μmol/L nifedipine, 48 h; p=0.473
Method: Human pre-adipocytes used in this study were supplied by Zen-Bio (Research Triangle, N.C.). […] The cells are isolated from the stromal vascular fraction of human subcutaneous adipose tissue and differentiated in vitro as follows: […] Preadipocytes were maintained in this differentiation medium for 3 days and subsequently cultured in adipocyte medium in which BRL49653 and MIX were omitted. Cultures were re-fed every 2-3 days till fully differentiated. Cells were incubated in serum free medium overnight before chemical treatment. Chemicals were freshly diluted in adipocyte medium before treatment. […] Cell viability was measured via trypan blue exclusion. Adipocyte and muscle 18s, TNFα, IL-6, IL-8, IL-15 and adiponectin were quantitatively measured using a smart cycler real-time PCR system (Cepheid, Sunnyvale, Calif.) with a TaqMan 1000 Core Reagent Kit (Applied Biosystems, Branchburg, N.J.). […] Reactions of quantitative RT-PCR for standards and unknown samples were also performed according to the instructions of Smart Cycler System (Cepheid, Sunnyvale, Calif.) and TaqMan Real Time PCR Core Kit (Applied Biosystems, Branchburg, N.J.). The mRNA quantitation for each sample was further normalized using the corresponding 18s quantitation.

[1] = tested on: Mitochondrial potential in cultured wild-type 3T3-L1 adipocytes; experiment: Mitochondrial membrane potential (JC-1); assay type: cell-based, murine; settings: H2O2 100 nmol/L, 48 hours
Method: 3T3-L1 preadipocytes were incubated at a density of 8000 cells/cm^2 (10 cm^2 dish) and grown in Dulbecco's modified Eagle's medium (DMEM) containing 10% FBS and antibiotics (adipocyte medium) at 37° C. in 5% CO2 in air. Confluent preadipocytes were induced to differentiate with a standard differentiation medium consisting of DMEM-F 10 (1:1, vol/vol) medium supplemented with 1% FBS, 1 μM dexamethasone, IBMX (0.5 mM) and antibiotics (1% Penicillin-Streptomycin). Preadipocytes were maintained in this differentiation medium for 3 days and subsequently cultured in adipocyte medium. Cultures were re-fed every 2-3 days to allow 90% of cells to reach full differentiation before conducting chemical treatment. Chemicals were freshly diluted in adipocyte medium before treatment. […] Cell viability was measured via trypan blue exclusion.
Mitochondrial membrane potential was analyzed fluorometrically with a lipophilic cationic dye JC-1 (5,5′,6,6′-tetrachloro-1,1′,3,3′-tetraethylbenzimidazol carbocyanine iodide) using a mitochondrial potential detection kit (Biocarta, San Diego, Calif.). Mitochondrial potential was determined as the ratio of red fluorescence (excitation 550 nm, emission 600 mn) and green fluorescence (excitation 485 nm, emission 535 nm) using a fluorescence microplate reader.

## C=C1/C(=C\C=C2/CCC[C@]3(C)[C@@H]([C@H](C)CCCC(C)(C)O)CC[C@@H]23)C[C@@H](O)C[C@@H]1O [calcitriol, 1, 25-Dihydroxyvitamin D]
Cyclin A
  effect on glucose stimulated cyclin A expression: augmented
TNFα
  stimulation of TNFα expression: 135%
IL-15
  effect on IL-15 expression: no effect

## OO [H2O2, hydrogen peroxide]
[1]
  increase of mitochondrial potential: 72%
